Patent publication US10696615B2, “Prenylated hydroxystilbenes” (The University of Sydney, priority 2011, dated 2020)

Tests used:
A498 = experiment: NCI in vitro cancer screen, Renal Cancer; assay type: cell-based, human; conditions: A498
[1] = tested on: MDA-MB-231 (MDA-MB-231/ATCC); experiment: NCI in vitro cancer screen, Breast Cancer; assay type: cell-based, human; conditions: MDA-MB-231
MCF7 = experiment: NCI in vitro cancer screen, Breast Cancer; assay type: cell-based, human; conditions: MCF7
HOP-92 = experiment: NCI in vitro cancer screen, Non-Small Cell Lung Cancer; assay type: cell-based, human; conditions: HOP-92
A549/ATCC = experiment: as above; assay type: cell-based, human
NCI-H522 = experiment: as above; assay type: cell-based, human; conditions: NCI-H522
T-47D = experiment: NCI in vitro cancer screen, Breast Cancer; assay type: cell-based, human
LOX IMVI = experiment: NCI in vitro cancer screen, Melanoma; assay type: cell-based, human
RPMI-8226 = experiment: NCI in vitro cancer screen, Leukemia; assay type: cell-based, human; conditions: RPMI-8226
OVCAR-4 = experiment: NCI in vitro cancer screen, Ovarian Cancer; assay type: cell-based, human; conditions: OVCAR-4
KM12 = experiment: NCI in vitro cancer screen, Colon Cancer; assay type: cell-based, human; conditions: KM12
SN12C = experiment: NCI in vitro cancer screen, Renal Cancer; assay type: cell-based, human
NCI-H322M = experiment: NCI in vitro cancer screen, Non-Small Cell Lung Cancer; assay type: cell-based, human
UACC-257 = experiment: NCI in vitro cancer screen, Melanoma; assay type: cell-based, human; conditions: UACC-257
SK-MEL-2 = experiment: NCI in vitro cancer screen, Melanoma; assay type: cell-based, human; conditions: SK-MEL-2
SK-MEL-28 = experiment: NCI in vitro cancer screen, Melanoma; assay type: cell-based, human; conditions: SK-MEL-28
RXF-393 = experiment: NCI in vitro cancer screen, Renal Cancer; assay type: cell-based, human; conditions: RXF-393
HL-60 (TB) = experiment: NCI in vitro cancer screen, Leukemia; assay type: cell-based, human; conditions: HL-60 (TB)
SF-539 = experiment: NCI in vitro cancer screen, CNS Cancer; assay type: cell-based; conditions: SF-539
SNB-75 = experiment: NCI in vitro cancer screen, CNS Cancer; assay type: cell-based, human; conditions: SNB-75
SF-268 = experiment: NCI in vitro cancer screen, CNS Cancer; assay type: cell-based, human; conditions: SF-268
OVCAR-8 = experiment: NCI in vitro cancer screen, Ovarian Cancer; assay type: cell-based, human; conditions: OVCAR-8
HT29 = experiment: NCI in vitro cancer screen, Colon Cancer; assay type: cell-based, human; conditions: HT29
EKVX = experiment: NCI in vitro cancer screen, Non-Small Cell Lung Cancer; assay type: cell-based, human
MOLT-4 = experiment: NCI in vitro cancer screen, Leukemia; assay type: cell-based, human; conditions: MOLT-4
PC-3 = experiment: NCI in vitro cancer screen, Prostate Cancer; assay type: cell-based, human; conditions: PC-3
UO-31 = experiment: NCI in vitro cancer screen, Renal Cancer; assay type: cell-based, human; conditions: UO-31
M14 = experiment: NCI in vitro cancer screen, Melanoma; assay type: cell-based, human; conditions: M14
HCT-15 = experiment: NCI in vitro cancer screen, Colon Cancer; assay type: cell-based, human; conditions: HCT-15
COLO 205 = experiment: NCI in vitro cancer screen, Colon Cancer; assay type: cell-based, human; conditions: COLO 205
OVCAR-5 = experiment: NCI in vitro cancer screen, Ovarian Cancer; assay type: cell-based, human; conditions: OVCAR-5
[2] = Homo sapiens, read-out: LC50 (the source's name)

`CC(C)=CCOc1cc(O)cc(/C=C/c2ccc(O)c(O)c2)c1` [USYDS4, (E)-3-(3-methyl-2-butenyloxy)-3′,4′,5-trihydroxystilbene] was tested. Which TGI (A498) did it give?
Its TGI is 23.5 µM.

What about the GI50 (A498; Homo sapiens) of the same compound?
Its GI50 is 9.07 µM.

And the CC50 (A498; [2])?
Its CC50 is 55.2 µM.

What about the GI50 ([1]; Homo sapiens) of the same compound?
Its GI50 is 1.04 µM.

And the CC50 [1, 2]?
Its CC50 is > 100 µM.

What about the TGI [1] of the same compound?
Its TGI is 18.4 µM.

And the GI50 (MCF7; Homo sapiens)?
Its GI50 is 2.57 µM.

What about the CC50 (MCF7; [2]) of the same compound?
Its CC50 is 51.1 µM.

What about the TGI (MCF7) of the same compound?
Its TGI is 18.2 µM.

And the TGI (HOP-92)?
The TGI was 13.6 µM.

What about the GI50 (HOP-92; Homo sapiens) of the same compound?
Its GI50 is 1.92 µM.

And the CC50 (HOP-92; [2])?
Its CC50 is 62.3 µM.

What about the TGI (A549/ATCC) of the same compound?
The TGI was 25.6 µM.

What about the GI50 (A549/ATCC; Homo sapiens) of the same compound?
The GI50 was 4.74 µM.

What about the CC50 (A549/ATCC; [2]) of the same compound?
Its CC50 is > 100 µM.

And the GI50 (NCI-H522; Homo sapiens)?
Its GI50 is 1.07 µM.

What about the CC50 (NCI-H522; [2]) of the same compound?
The CC50 was 6.04 µM.

And the TGI (NCI-H522)?
The TGI was 2.54 µM.

What about the TGI (T-47D) of the same compound?
The TGI was 6.93 µM.

And the GI50 (T-47D; Homo sapiens, T47D)?
The GI50 was 2.13 µM.

And the CC50 (T-47D; Homo sapiens, T47D, read-out: LC50 (the source's name))?
Its CC50 is > 100 µM.

What about the TGI (LOX IMVI) of the same compound?
Its TGI is 19.3 µM.

What about the GI50 (LOX IMVI; Homo sapiens) of the same compound?
Its GI50 is 3.82 µM.

And the CC50 (LOX IMVI; [2])?
The CC50 was 58.5 µM.

What about the GI50 (RPMI-8226; Homo sapiens) of the same compound?
Its GI50 is 2.35 µM.

What about the CC50 (RPMI-8226; [2]) of the same compound?
The CC50 was > 100 µM.

What about the TGI (RPMI-8226) of the same compound?
The TGI was 25.4 µM.

And the GI50 (OVCAR-4; Homo sapiens)?
The GI50 was 3.98 µM.

What about the CC50 (OVCAR-4; [2]) of the same compound?
Its CC50 is > 100 µM.

What about the TGI (OVCAR-4) of the same compound?
Its TGI is 50.4 µM.

What about the GI50 (KM12; Homo sapiens) of the same compound?
Its GI50 is 3.27 µM.

And the CC50 (KM12; [2])?
The CC50 was 46.5 µM.

What about the TGI (KM12) of the same compound?
The TGI was 14.2 µM.

And the TGI (SN12C)?
Its TGI is 20.0 µM.

What about the GI50 (SN12C; Homo sapiens) of the same compound?
Its GI50 is 3.94 µM.

And the CC50 (SN12C; [2])?
Its CC50 is 74.1 µM.

And the TGI (NCI-H322M)?
Its TGI is 54.7 µM.

And the GI50 (NCI-H322M; Homo sapiens)?
The GI50 was 12.8 µM.

What about the LC50 (50% lethal concentration) (NCI-H322M; Homo sapiens) of the same compound?
The LC50 (50% lethal concentration) was > 100 µM.

And the GI50 (UACC-257; Homo sapiens)?
The GI50 was 5.44 µM.

What about the CC50 (UACC-257; [2]) of the same compound?
Its CC50 is 48.6 µM.

What about the TGI (UACC-257) of the same compound?
Its TGI is 19.4 µM.

What about the GI50 (SK-MEL-2; Homo sapiens) of the same compound?
Its GI50 is 2.18 µM.

And the LC50 (SK-MEL-2; Homo sapiens)?
Its LC50 is 31 µM.

And the TGI (SK-MEL-2)?
Its TGI is 6.57 µM.

What about the GI50 (SK-MEL-28; Homo sapiens) of the same compound?
The GI50 was 9.18 µM.

What about the LC50 (SK-MEL-28; Homo sapiens) of the same compound?
The LC50 was 77.9 µM.

And the TGI (SK-MEL-28)?
The TGI was 27.6 µM.

And the GI50 (RXF-393; Homo sapiens)?
Its GI50 is 2.17 µM.

And the CC50 (RXF-393; [2])?
Its CC50 is 46 µM.

What about the TGI (RXF-393) of the same compound?
Its TGI is 15.3 µM.

And the TGI (HL-60 (TB))?
Its TGI is 6.04 µM.

What about the GI50 (HL-60 (TB); Homo sapiens) of the same compound?
The GI50 was 2.59 µM.

And the CC50 (HL-60 (TB); [2])?
Its CC50 is > 100 µM.

What about the GI50 (SF-539; Homo sapiens) of the same compound?
Its GI50 is 3.45 µM.

What about the CC50 (SF-539; [2]) of the same compound?
The CC50 was 97.5 µM.

What about the TGI (SF-539) of the same compound?
The TGI was 22.3 µM.

What about the GI50 (SNB-75; Homo sapiens) of the same compound?
Its GI50 is 1.77 µM.

What about the CC50 (SNB-75; [2]) of the same compound?
The CC50 was 48.3 µM.

What about the TGI (SNB-75) of the same compound?
The TGI was 9.11 µM.

What about the GI50 (SF-268; Homo sapiens) of the same compound?
Its GI50 is 3.89 µM.

And the CC50 (SF-268; [2])?
Its CC50 is > 100 µM.

And the TGI (SF-268)?
Its TGI is 23.2 µM.

And the GI50 (OVCAR-8; Homo sapiens)?
The GI50 was 4.94 µM.

What about the CC50 (OVCAR-8; [2]) of the same compound?
The CC50 was > 100 µM.

And the TGI (OVCAR-8)?
The TGI was 31.1 µM.

What about the TGI (HT29) of the same compound?
Its TGI is 32.5 µM.

And the GI50 (HT29; Homo sapiens, HT-29)?
The GI50 was 16.3 µM.

What about the CC50 (HT29; Homo sapiens, HT-29, read-out: LC50 (the source's name)) of the same compound?
Its CC50 is 64.7 µM.

And the TGI (EKVX)?
The TGI was 59.6 µM.

And the GI50 (EKVX; Homo sapiens)?
The GI50 was 9.55 µM.

And the CC50 (EKVX; [2])?
The CC50 was > 100 µM.

What about the GI50 (MOLT-4; Homo sapiens) of the same compound?
The GI50 was 4.31 µM.

And the CC50 (MOLT-4; [2])?
Its CC50 is > 100 µM.

What about the TGI (MOLT-4) of the same compound?
Its TGI is 21.6 µM.

What about the GI50 (PC-3; Homo sapiens) of the same compound?
The GI50 was 4.47 µM.

What about the CC50 (PC-3; [2]) of the same compound?
Its CC50 is 87.9 µM.

And the TGI (PC-3)?
Its TGI is 22.0 µM.

What about the GI50 (UO-31; Homo sapiens) of the same compound?
Its GI50 is 3.31 µM.

What about the CC50 (UO-31; [2]) of the same compound?
Its CC50 is 66.4 µM.

And the TGI (UO-31)?
Its TGI is 20.7 µM.

What about the GI50 (M14; Homo sapiens) of the same compound?
The GI50 was 0.91 µM.

And the CC50 (M14; [2])?
The CC50 was 46.3 µM.

What about the TGI (M14) of the same compound?
The TGI was 15.4 µM.

And the TGI (HCT-15)?
Its TGI is 34.9 µM.

What about the GI50 (HCT-15; Homo sapiens) of the same compound?
The GI50 was 1.77 µM.

And the CC50 (HCT-15; [2])?
Its CC50 is > 100 µM.

And the TGI (COLO 205)?
The TGI was 23.0 µM.

And the GI50 (COLO 205; Homo sapiens)?
Its GI50 is 9.72 µM.

And the CC50 (COLO 205; [2])?
Its CC50 is 53.5 µM.

What about the GI50 (OVCAR-5; Homo sapiens) of the same compound?
Its GI50 is 15.9 µM.

And the CC50 (OVCAR-5; [2])?
The CC50 was > 100 µM.

And the TGI (OVCAR-5)?
Its TGI is 51.4 µM.
